Results from paper PMC10630888, “Nuclear ERK1/2 signaling potentiation enhances neuroprotection and cognition via Importinα1/KPNA2” (EMBO Molecular Medicine, 2023).
“And” between values parts separate entries of the source, which are not always exact repeats. Equal values may be shown once.

What was measured:
[1] = tested on: ribosomal protein S6 (Ser 235/236) phosphorylation; test: pS6 (Ser235/236) immunofluorescence in acute striatal slices with glutamate; type: cell-based, mouse; conditions: peptide 50 μM 1 h, individual slices
Protocol: Adult C57Bl/6 mice were decapitated after cervical dislocation and brain slices were freshly prepared as previously described in Orellana et al ([2012]) and Papale et al ([2016]). Briefly, the brains were rapidly removed from the skull, submerged in ice‐cold sucrose‐based dissecting solution, and sliced into 200 μm‐thick slices using a vibratome. […] After a rapid fixation in 4% PFA, slices were rinsed and cryoprotected overnight at 4°C in 30% sucrose solution. On the following day, slices were cut into 18 μm‐thick slices using a cryostat (Leica CM1850), mounted onto SuperFrost Plus slides (Thermo Scientific) and stored at −20°C until processing for immunohistochemistry or immunofluorescence.
Immunofluorescence was performed as described in Papale et al ([2016]). Briefly, 1 h after blocking in 5% normal goat serum, slices were incubated overnight at 4°C with the following primary antibodies: anti‐phospho (Ser10)‐acetylated (Lys14) histone H3 (1:1,000, Millipore), anti‐phospho‐S6 ribosomal protein (Ser235/236) (1:200, Cell Signaling Technology) anti‐phospho‐S6 ribosomal protein (Ser240/244) (1:200, Cell Signaling), cleaved caspase‐3 (1:200, Cell Signaling Technology), anti‐mutant Huntingtin (1:100, Developmental Studies Hybridoma Bank, University of Iowa, #MW8), and NeuN (1:1,000, Millipore). Corresponding secondary antibodies (Alexa Fluor 546 conjugated anti‐mouse (1:200, Thermo Fisher Scientific), Alexa Fluor 488 conjugated anti‐rabbit (1:500, Thermo Fisher Scientific) and Pacific Blue goat anti‐mouse (1:200, Thermo Fisher Scientific) were incubated at room temperature for 1 h. Sections stained for mutant Huntingtin were incubated with DAPI for 20 min. Sections were subsequently mounted with fluorescent mounting medium (DAKO). Single and double‐labeled images ([…]) were obtained at 40× magnification from the striatum using a laser scanning confocal microscope (Leica SP2) equipped with the corresponding lasers and appropriate filter sets to avoid the crosstalk between the fluorochromes.
In ex‐vivo and in‐vivo immunofluorescence experiments, the number of p‐S6 or p‐AcH3 immunoreactive neurons among NeuN‐positive neurons was counted in 2–3 consecutive striatal sections per mouse in four fields per section. Caspase 3‐positive cells were quantified among NeuN‐positive neurons in each slide and expressed as percentage (ratio between caspase‐3‐positive cells and total NeuN‐positive neurons) for each field acquired through the slide. The number of cells showing mutant Huntingtin inclusions were expressed as a percentage of mutant Huntingtin‐positive cells among DAPI‐positive cells.

[2] = tested on: contextual fear memory; test: Contextual fear conditioning, Tg2576 and WT mice; type: in vivo, mouse; set-up: unit not given here; conditions: 7 months, 20 mg/kg i.p. 1 h before CFC, test 24 h later, individual mice
Protocol: Tg2576 mice were administered with RB5 or Scramble (20 mg/kg i.p.) for either 7 days, for IHC analysis, or with a single injection (20 mg/kg i.p.), for behavioral analysis.
7‐month‐old Tg2576 mice and WT mice were treated with either Scramble or RB5 (20 mg/kg, i.p.) 1 h before CFC. Mice were individually placed in the conditioning chamber for 120 s of free exploration followed by five foot‐shocks (0.7 mA, 2‐s duration, separated by 60‐s intervals) delivered through the grid floor. Context Fear Memory was assessed 24 h later by returning mice for 5 min to the conditioning chamber and not delivering a foot shock.
For all protocols, freezing behavior served as a measure of conditioned fear to the context during the conditioning and retrieval tests.

| Substance | pS6 (Ser235/236) immunoreactive neurons among NeuN-positive neurons ([1]; then glutamate 100 μM 10 min) | pS6 (Ser235/236) immunoreactive neurons among NeuN-positive neurons ([1]; then vehicle 10 min) | Freezing behavior, contextual fear memory ([2]; Tg2576 mice) | Freezing behavior, contextual fear memory ([2]; WT mice) |
| --- | --- | --- | --- | --- |
| SCR: ineffective Scramble version of RB5 containing a TAT sequence (GRKKRRQRRRPPRVGPGVPEGVGVAVFGVKEPGQTGDVGPVGE) [reference compound] | 26.24 and 21.87 and 18.27 and 25.45 and 28.87 and 26.8562 and 29.1865 and 24.4192 and 22.75 and 21.51 and 19.87 and 20.18 | 12.33 and 13.90 and 11.33 and 13.09 and 9.47 and 11.58 and 11.02 and 10.86 and 14.51 | 28.67 and 36 and 36.67 and 25.33 and 43.67 and 29.67 and 28 | 96.67 and 87.67 and 96.33 and 88.67 and 64 and 57.67 and 82.67 |
| GRKKRRQRRRPPQGGGGGEPRRTEGVGPGVPGEVEMVKGQPFDV [RB5, six D-amino acids, acetylated N-terminus] | blunted and 17.3997 and 19.6901 and 16.4767 and 13.6077 and 18.6740 and 17.1380 and 11.1928 and 12.0526 and 14.5710 and 10.2402 and 9.5439 and 15.5782 and 12.6217 and 14.7339 | 13.7412 and 14.9907 and 12.2371 and 13.4483 and 9.59 and 9.671 and 8.798 and 18.1241 and 17.7385 and 16.8553 and 14.4173 and 14.7976 and 16.1024 and 14.3475 | fully prevented the memory impairment and 56.33 and 63.67 and 67 and 57.33 and 84 and 76.33 and 95.67 and 82.67 | 93.33 and 94.33 and 78 and 88.33 and 70.33 and 78.33 and 85 |
